Values quoted from earlier work as cited in PMC8952239, “Injectable Biodegradable Silica Depot: Two Months of Sustained Release of the Blood Glucose Lowering Peptide, Pramlintide” (Pharmaceutics, 2022).
Bridge positions count the residues as written; N and C are the ends. Ends that are not written are not given here.

How the values were obtained:
[1] = weak acid; no reference given
Description: In this communication, we highlight a sustained delivery strategy for in vivo delivery of the synthetic peptide analogue of amylin, pramlintide acetate. As mentioned earlier, amylin is the endogenous hormone co-secreted with insulin by the pancreas for glucose metabolism in vivo. […] Such effects can be moderated either by decreasing the single dosing of preprandial ins ...

lean rats = tested on: lean rats
Description: (Figure 6). […] The findings for bodyweight loss mirror very well previously published data in lean rats. Roth et al. show body weight returning to baseline levels 8 days after the start of amylin treatment in an experiment assessing the effect ...

rats = tested on: rats
Procedure: In an earlier preclinical study of pramlintide in rats, the peak plasma concentration of pramlintide at 50% maximally effective gastric inhibitory dose was reported to be 15 pM. The lower dose (5 mg/kg) formulation in the present study seems to achieve this concentration level by the end of the study.

O[Si](O)(O)O [silicic acid]
pKa [1]: 9.84

amylin: endogenous hormone co-secreted with insulin by the pancreas (KCNTATCATQRLANFLVHSSNNFGAILSSTNVGSNTY; Islet amyloid polypeptide; UniProt P10997 34-70, looked up)
time after start of treatment at which body weight returned to baseline levels (lean rats; continuous subcutaneous amylin infusion over 24 days): 8 days | period with significant effects on food intake (lean rats; lean animals, minipump over 14 days): 6 days

pramlintide acetate (KCNTATCATQRLANFLVHSSNNFGPILPPTNVGSNTY-NH2; disulfide 2-7 (inferred); also: acetate salt; UniProt P10997 34-70, looked up, variant A25P S28P S29P) [synthetic analogue of amylin, adjunct to preprandial insulin therapy]
peak plasma concentration at 50% maximally effective gastric inhibitory dose (rats): 15 pM
